# US8053409B2, “Agent for prophylaxis of reflex sympathetic dystrophy after cerebral apoplexy” (Asahi Kasei Pharma Corporation, priority 2006, dated 2011)
# Experiments:
# [1] = system: patients with hemiplegia attributed to cerebrovascular disease (stroke) who developed RSD (shoulder-hand syndrome); assay: Test of treatment of post-stroke RSD; assay type: in vivo, human; conditions: therapeutic administration group, at completion of administration
# Description: EL was administered after the onset of RSD (shoulder-hand syndrome) in the same use and dose as in Example 1 to 11 patients with hemiplegia attributed to cerebrovascular disease (stroke) at Brunnstrom stage III or lower in either the upper limb or a finger on admission, who developed RSD (shoulder-hand syndrome). These patients were classified into a therapeutic administration group. On the other hand, the EL administration group of Example 1 was compared as a control (preventive administration group) with the therapeutic administration group.
# [2] = system: patients with hemiplegia attributed to cerebrovascular disease (stroke); assay: Test of prevention of onset of post-stroke RSD; assay type: in vivo, human
# Excerpt: Test subjects were 33 patients with hemiplegia attributed to cerebrovascular disease (stroke) at Brunnstrom stage III or lower in either the upper limb or a finger on admission. Patients already developing RSD (shoulder-hand syndrome) on admission and patients with pain in the shoulder joint or swollen paralyzed limbs were excluded from the test. […] On the other hand, 21 test subjects were classified into a rehabilitation alone group (control group) and compared with the EL administration group. Physical therapy and therapeutic exercise, occupational therapy, and the management of the paralyzed limbs were performed thoroughly in all the cases. […] EL administration was initiated 11 to 59 days after an attack of stroke (25.8 days on average) and continued until 5 months after the attack of stroke. The same observation period was applied to the control group. The test subjects were diagnosed as developing RSD (shoulder-hand syndrome) if they had diffuse pain not localized to the shoulder joint, edema involving skin color changes, skin temperature abnormalities, and range of motion limitations, and the practice of their rehabilitation was restricted. These criteria agreed to Veldman's diagnostic criteria or diagnostic criteria, for CRPS-type 1 provided by the International Association for the Study of Pain.
# Activities of daily living (ADL) were evaluated on the basis of the Barthel Index (BI) and the range of motion (ROM) of shoulder joint. The movable range of shoulder joint (also referred to as “shoulder ROM”) was regarded as restricted (Shoulder-ROM-restrictions were present.) if either abduction or flexion was restricted in measurement. The test subjects were also examined for sensory impairment, aphasia, and unilateral spatial neglect on admission.
# Statistical analysis was conducted with unpaired t-test, Fisher's exact test, or Wilcoxon test, and 5% or lower significance level was regarded as being significant.
# [3] = system: RSD triggered and developed by a trauma or surgical invasion; conditions: subjects having no anamnesis of RSD, after a trauma or surgical invasion; cited from earlier work
# [4] = EL preventive administration group (12 subjects), 20 units intramuscularly once a week, continued until 5 months after stroke
# [5] = preventive administration group, at completion of administration
Compound,"Barthel index, Average ± SE [1]","Barthel index, Median [1]","No RSD, the number of persons [1]","Incidence of RSD converted to all patients with hemiplegia attributed to stroke in the facility ([2]; EL administration group, control group approximately 8.7%)","The number of test subjects developing post-stroke RSD: Developed [2, 4]","The number of test subjects developing post-stroke RSD: Not developed [2, 4]","Cases that developed RSD (incidence) ([2]; EL preventive administration group, 1 of the 12 cases, control group 52.4%)",Incidence of RSD when EL administration was initiated within 48 days after stroke ([2]; cases with administration initiated within 48 days after stroke),"Barthel index, Average ± SE [2, 5]","Barthel index, Median [2, 5]","No RSD, the number of persons [2, 5]",Incidence of RSD until discharge from hospital compared with the unadministered patient group ([2]; repetitive administration to hemiplegia patients without RSD on admission),Preventive effect on the initial onset of RSD [3]
1-butyric acid-7-(L-2-aminobutyric acid)-26-L-aspartic acid-27-L-valine-29-L-alanine-calcitonin [elcatonin],31.8 ± 7.8,25,0,approximately 1.3%,1,11,8.3%,0%,60.8 ± 9.3,72.5,11,suppressed significantly and remarkably,–
O=C1O[C@H]([C@@H](O)CO)C(O)=C1O [vitamin C],–,–,–,–,–,–,–,–,–,–,–,–,preventive effect
